Assay results reported in patent publication US11071727B2, “Therapeutic targeting of proteolytic cleavage of the mixed lineage leukemia gene product (MLL1) by taspase1 using kinase inhibitors” (Northwestern University, priority 2018, dated 2021).

Tested on: MLL1
Test: Western blot of full-length MLL1 protein levels in cells treated with CKII inhibitors
Assay type: cell-based, human
Conditions: 30 hours
Description: FIG. 5. CKII inhibitors selectively increase full-length MLL1 protein levels by decreasing the phosphorylation of MLL1 near the cleavage sites. (A) Conservation of the sequences flanking MLL1-CS2, MLL2 and TFIIA cleavage sites and phosphorylated serine and threonine residues after the cleavage sites (highlighted in red). (B) and (C) 293T cells were transfected with vector control (VT), WT, AA or DD reporter constructs of MLL1-p75 or TFIIA. Western blot was performed with anti-Flag antibody for MLL1 (p75: FL, p47: cleaved) or TFIIA (p54: FL, p47: cleaved). (D) and (E) 293T cells were transfected with WT or AA reporter constructs of MLL1-p75 or TFIIA in the presence or absence of HA-taspase1. Western blot was performed with anti-Flag antibody for MLL1 or TFIIA, or anti-HA antibody for taspase1. (F) 293T cells were infected with shRNAs against CKIIα or CKIIα′. Western blot was performed with anti-MLL1C antibody for MLL1 full-length protein levels, and CKIIα or CKIIα′ for knockdown efficiency. (G) 293T cells were treated with DMSO or 10 μM CX-4945 for 30 hours. Cells were harvested and lysed for Western blot against MLL1, MLL2 or TFIIA using β-tubulin as the loading control. (H) and (I) 293T taspase1 KO cells were pre-treated with CX-4945 (3 μM) or TTP22 (10 μM) for 30 hours. Whole cell lysates from the two conditions were incubated with increasing concentrations of his-taspase1 and subject to in vitro taspase1 assay.
FIG. 13. CKII inhibitors increase full-length MLL1 protein levels. (A) Prediction of kinases that phosphorylate MLL1 near the taspase1 cleavage site. (B) Structure of the CKII inhibitors CX-4945, TTP22, DMAT and TTB. (C) Comparison of the IC50 and molecular weight of the four CKII inhibitors. […] Quantification of the band intensities was performed by ImageJ software. (E) and (F) in vitro taspase1 cleavage assay. Taspase1 KO cell lysates were incubated with recombinant his-tagged taspase1 (0, 1, 10, 100 or 1000 ng) and subject to in vitro taspase1 cleavage assay. Cleavage efficiency was shown as the blotting for MLL1 and TFIIA using Hsp90 as the loading control.
Cell culture. […]

In the case of `O=C(O)c1ccc2c(c1)nc(Nc1cccc(Cl)c1)c1ccncc12` [CX-4945, 5-(3-chlorophenylamino)benzo[c][2,6]naphthyridine-8-carboxylic acid], the “conversion from cleaved MLL1 to full-length MLL1” value (293T cells, 10 μM) is reported as “increased the conversion from cleaved MLL1 to full-length MLL1” and the “MLL1 full-length protein levels” value (293T, MCF7 and HCT116 cells, 0-20 μM, Western blot with MLL1C antibody) is reported as “dose-dependent increase of MLL1 full-length protein levels”.
